In general, IC50 refers to the concentration at which inhibition is half-maximal. A higher IC50 goes with a need for much substance.

human DGAT2 (hDGAT2), sequence (Q96PD7 whole entry): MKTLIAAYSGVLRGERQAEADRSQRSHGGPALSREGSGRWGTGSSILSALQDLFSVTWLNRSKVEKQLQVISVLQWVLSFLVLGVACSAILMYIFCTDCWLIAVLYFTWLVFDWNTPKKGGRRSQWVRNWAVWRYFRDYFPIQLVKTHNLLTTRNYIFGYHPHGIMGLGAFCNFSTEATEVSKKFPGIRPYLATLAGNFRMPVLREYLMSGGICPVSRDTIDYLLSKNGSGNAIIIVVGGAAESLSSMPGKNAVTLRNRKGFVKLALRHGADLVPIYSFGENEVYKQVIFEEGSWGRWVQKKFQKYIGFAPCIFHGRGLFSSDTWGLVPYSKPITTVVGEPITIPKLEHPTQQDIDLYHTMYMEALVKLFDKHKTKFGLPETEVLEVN

The target in the test is human DGAT2 (hDGAT2) (Homo sapiens (Human), UniProt Q96PD7). As to the kind of experiment: DGAT2 Enzymatic Activity Assay. The format is biochemical. The note with it: hDGAT2 Sf-9 membrane prep; 13C18-triolein product by LC/MS/MS; 25 μM diolein, 5 μM 13C oleoyl-CoA. Put shortly:
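Enzyme source was membrane fractions from Sf-9 cells infected with untagged hDGAT2 baculovirus. Reactions ran at room temperature, and product 13C18-triolein was quantified by LC/MS/MS against a 13C21-triolein internal standard. % inhibition was normalised to high and low controls, and IC50 derived from it.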
Take `CC(C)n1nc(-c2cc(OC(F)F)ccc2F)c2c1C[C@H](C(=O)NC1(C)CS(=O)(=O)C1)CC2` [Example 82, (R)-3-(5-(difluoromethoxy)-2-fluorophenyl)-1-isopropyl-N-(3-methyl-1,1-dioxidothietan-3-yl)-4,5,6,7-tetrahydro-1H-indazole-6-carboxamide]: the concentration for half-maximal inhibition (IC50) came to 30.8 nM. In turn, `CC(C)n1nc(-c2cc(C3CC3)ccc2F)c2c1C[C@H](C(=O)NC1(C)CS(=O)(=O)C1)CC2` [Example 83, (R)-3-(5-cyclopropyl-2-fluorophenyl)-1-isopropyl-N-(3-methyl-1,1-dioxidothietan-3-yl)-4,5,6,7-tetrahydro-1H-indazole-6-carboxamide] showed a half-maximal inhibitory concentration (IC50) of 46 nM.

`CC(C)n1nc(-c2cc(OC(F)F)ccc2Cl)c2c1C[C@H](C(=O)NC1(C)CS(=O)(=O)C1)CC2` [Example 84, (R)-3-(2-chloro-5-(difluoromethoxy)phenyl)-1-isopropyl-N-(3-methyl-1,1-dioxidothietan-3-yl)-4,5,6,7-tetrahydro-1H-indazole-6-carboxamide] yielded an IC50 of 7.92 nM.

`CC(C)n1nc(-c2cc(OC3CC3)ccc2F)c2c1C[C@H](C(=O)NC1(C)CS(=O)(=O)C1)CC2` [Example 85, (R)-3-(5-cyclopropoxy-2-fluorophenyl)-1-isopropyl-N-(3-methyl-1,1-dioxidothietan-3-yl)-4,5,6,7-tetrahydro-1H-indazole-6-carboxamide] yielded an IC50 of 15.6 nM. The figure for `Cc1ncc(OC(F)F)cc1-c1nn(C(C)C)c2c1CC[C@@H](C(=O)NC1(C)CS(=O)(=O)C1)C2` [Example 86, (R)-3-(5-(difluoromethoxy)-2-methylpyridin-3-yl)-1-isopropyl-N-(3-methyl-1,1-dioxidothietan-3-yl)-4,5,6,7-tetrahydro-1H-indazole-6-carboxamide] is 170 nM. Take `CCOc1cc(F)c(F)c(-c2nn(C(C)C)c3c2CC[C@@H](C(=O)NC2(C)CS(=O)(=O)C2)C3)c1` [Example 87, (R)-3-(5-ethoxy-2,3-difluorophenyl)-1-isopropyl-N-(3-methyl-1,1-dioxidothietan-3-yl)-4,5,6,7-tetrahydro-1H-indazole-6-carboxamide]: it took 3.6 nM to reach half-maximal inhibition (IC50). The figure for `CC(C)n1nc(-c2cc(OC(F)(F)F)cnc2Cl)c2c1C[C@H](C(=O)NC1(C)CS(=O)(=O)C1)CC2` [Example 88, (R)-3-(2-chloro-5-(trifluoromethoxy)pyridin-3-yl)-1-isopropyl-N-(3-methyl-1,1-dioxidothietan-3-yl)-4,5,6,7-tetrahydro-1H-indazole-6-carboxamide] is 275 nM; for `Cc1ncc(OC(F)F)cc1-c1nn(C(C)C)c2c1CC[C@@H](C(=O)NC1(C)CC(F)(F)C1)C2` [Example 89, (R)-N-(3,3-difluoro-1-methylcyclobutyl)-3-(5-(difluoromethoxy)-2-methylpyridin-3-yl)-1-isopropyl-4,5,6,7-tetrahydro-1H-indazole-6-carboxamide] it is 318 nM. The figure for `CC(C)n1nc(-c2cccc(C3(C(F)(F)F)CC3)c2)c2c1C[C@H](C(=O)NC1(C)CS(=O)(=O)C1)CC2` [Example 90, (R)-1-isopropyl-N-(3-methyl-1,1-dioxidothietan-3-yl)-3-(3-(1-(trifluoromethyl)cyclopropyl)phenyl)-4,5,6,7-tetrahydro-1H-indazole-6-carboxamide] is above 10000 nM. For the compound `CC(C)n1nc(-c2cccc(C3(C#N)CC3)c2)c2c1C[C@H](C(=O)NC1(C)CS(=O)(=O)C1)CC2` [Example 91, (R)-3-(3-(1-cyanocyclopropyl)phenyl)-1-isopropyl-N-(3-methyl-1,1-dioxidothietan-3-yl)-4,5,6,7-tetrahydro-1H-indazole-6-carboxamide], the half-maximal inhibitory concentration (IC50) was above 10000 nM. For the compound `CC(C)n1nc(-c2cc(C(C)(F)F)ncc2F)c2c1C[C@H](C(=O)NC1(C)CCS(=O)(=O)CC1)CC2` [Example 92, (R)-3-(2-(1,1-difluoroethyl)-5-fluoropyridin-4-yl)-1-isopropyl-N-(4-methyl-1,1-dioxidotetrahydro-2H-thiopyran-4-yl)-4,5,6,7-tetrahydro-1H-indazole-6-carboxamide], the IC50 was 1210 nM. The result for `Cc1nc2c(-c3nn(C(C)C)c4c3CC[C@@H](C(=O)NC3(C)CS(=O)(=O)C3)C4)cccc2o1` [Example 93, (R)-1-isopropyl-N-(3-methyl-1,1-dioxidothietan-3-yl)-3-(2-methylbenzo[d]oxazol-4-yl)-4,5,6,7-tetrahydro-1H-indazole-6-carboxamide] reads above 10000 nM; that for `CC(C)n1nc(-c2cccc(CC#N)c2)c2c1C[C@H](C(=O)NC1(C)CS(=O)(=O)C1)CC2` [Example 94, (R)-3-(3-(cyanomethyl)phenyl)-1-isopropyl-N-(3-methyl-1,1-dioxidothietan-3-yl)-4,5,6,7-tetrahydro-1H-indazole-6-carboxamide], above 10000 nM. `CC(C)n1nc(-c2cncc(C(=O)NC(C)(C)C)c2)c2c1C[C@H](C(=O)NC1(C)CS(=O)(=O)C1)CC2` [Example 95, (R)-3-(5-(tert-butylcarbamoyl)pyridin-3-yl)-1-isopropyl-N-(3-methyl-1,1-dioxidothietan-3-yl)-4,5,6,7-tetrahydro-1H-indazole-6-carboxamide]: the IC50 is above 10000 nM. The figure for `CC(C)n1nc(-c2cccc(OCC#N)c2)c2c1C[C@H](C(=O)NC1(C)CS(=O)(=O)C1)CC2` [Example 96, (R)-3-(3-(cyanomethoxy)phenyl)-1-isopropyl-N-(3-methyl-1,1-dioxidothietan-3-yl)-4,5,6,7-tetrahydro-1H-indazole-6-carboxamide] is above 10000 nM; for `CC(C)n1nc(-c2cccc(S(C)(=O)=O)c2)c2c1C[C@H](C(=O)NC1(C)CS(=O)(=O)C1)CC2` [Example 98, (R)-1-isopropyl-N-(3-methyl-1,1-dioxidothietan-3-yl)-3-(3-(methylsulfonyl)phenyl)-4,5,6,7-tetrahydro-1H-indazole-6-carboxamide] it is above 10000 nM; for `CCNS(=O)(=O)c1cccc(-c2nn(C(C)C)c3c2CC[C@@H](C(=O)NC2(C)CS(=O)(=O)C2)C3)c1` [Example 99, (R)-3-(3-(N-ethylsulfamoyl)phenyl)-1-isopropyl-N-(3-methyl-1,1-dioxidothietan-3-yl)-4,5,6,7-tetrahydro-1H-indazole-6-carboxamide] it is above 10000 nM. The figure for `CCc1ccc(F)c(-c2nn(C(C)C)c3c2CC[C@@H](C(=O)NC2(C)CS(=O)(=O)C2)C3)c1` [Example 100, (R)-3-(5-ethyl-2-fluorophenyl)-1-isopropyl-N-(3-methyl-1,1-dioxidothietan-3-yl)-4,5,6,7-tetrahydro-1H-indazole-6-carboxamide] is 158 nM. The result for `CC(C)n1nc(-c2cc(C#N)ccc2F)c2c1C[C@H](C(=O)NC1(C)CS(=O)(=O)C1)CC2` [Example 101, (R)-3-(5-cyano-2-fluorophenyl)-1-isopropyl-N-(3-methyl-1,1-dioxidothietan-3-yl)-4,5,6,7-tetrahydro-1H-indazole-6-carboxamide] reads above 10000 nM; that for `CC(C)n1nc(-c2cccc(C3(O)CCC3)c2)c2c1C[C@H](C(=O)NC1(C)CC(F)(F)C1)CC2` [Example 103, (R)-N-(3,3-difluoro-1-methylcyclobutyl)-3-(3-(1-hydroxycyclobutyl)phenyl)-1-isopropyl-4,5,6,7-tetrahydro-1H-indazole-6-carboxamide], above 10000 nM.

Values taken from patent US20240140938A1, “PREPARATION OF TETRAHYDROINDAZOLE DERIVATIVES AS NOVEL DIACYLGLYCERIDE O-ACYLTRANSFERASE 2 INHIBITORS” (MERCK SHARP & DOHME LLC, priority 2020, published 2024).
